≈ marks a conversion by molar mass, not a printed value. Like-named read-outs stand apart in the source and are kept apart here.
Columns and labels:
[1] = system: rhinovirus type 14 (strain 1059); assay: Gradient plate plaque-reduction technique in HeLa cells, rhinovirus type 14; format: cell-based, human; set-up: key to ACTIVITY: +: active; -: inactive
Protocol: (§1) A further series of tests was performed in which the inhibitory concentrations of 3-(4-pyridyl)-4-(2-hydroxyphenyl)-5-ethylpyrazole against various human types of rhinovirus were determined by the gradient plate plaque-reduction technique. Cultures of HeLa cancer cells were used of which two were prepared for each test. One culture was treated with the above compound which was applied in gradient while the other culture served as control. Both cultures were then infected with a human type of rhinovirus. The inhibitory concentration was determined by measuring the zone of inhibition on the cellsheet. Six types of rhinovirus were employed and the following results registered.

Herpes = assay: Herpes-induced keratitis in the rabbit eye; format: in vivo; settings: local use, 2, 1 and 0.5%
Protocol: Another test was carried out with this same compound in order to evaluate its action against Herpes-induced keratitis in the rabbit eye.

Herpes Simplex [2] = assay: microbe, parasite or virus in culture; format: cell-based, rabbit; settings: Oryctolagus cuniculus, 96 h; dose of 250 μg; tissue first infected, compound in overlay; 50% considered significant; read-out: plaque-reduction
Influenza PR8 = assay: 48-Hour Mouse Test (Test No. 2), Influenza PR8; format: in vivo, mice; settings: virus dose not ascertained, read-out: Log Reductions (EID50) as compared with controls
[3] = system: rhinovirus type 3 (prototype); assay: Inhibition of rhinovirus cytopathogenic effect in human embryonic lung cultures, type 3; format: cell-based; settings: 50 and 75 μgm/ml
Protocol: (§2) Other tests were carried out to determine the inhibitory effect of 3-(4-pyridyl)-4-(2-hydroxyphenyl)-5-ethylpyrazole on various types of rhinovirus.
(§3) In each test two cultures of human embryonic lung were prepared of which one was treated with the above compound while the other served as control. The cultures were then infected with a strain of rhinovirus. The compound was used in concentrations of 50 and 75 μgm/ml and was considered to be active if the cytopathogenic effect of the rhinovirus was reduced by at least 75% as compared to the control culture. This cytopathogenic effect was determined by counting the number of plaques formed by destroyed cells.
(§4) Seven human types of rhinovirus were employed and the following results registered: […]

Influenza virus Jap 305 = assay: Mouse-Survival Test (Test No. 1), Influenza Jap 305; format: in vivo, mice; settings: for S.I.: significant if >1.24
[4] = system: rhinovirus type 39 (strain 209); assay: Gradient plate plaque-reduction technique in HeLa cells, rhinovirus type 39; format: cell-based, human; set-up: key: +: active
Protocol: as §1

[5] = system: rhinovirus type 27 (strain Cor. 28); assay: Gradient plate plaque-reduction technique in HeLa cells, rhinovirus type 27; format: cell-based, human; set-up: key to ACTIVITY: +: active
Protocol: as §1

[6] = system: rhinovirus type 7 (SF1470); assay: Inhibition of rhinovirus cytopathogenic effect in human embryonic lung cultures, type 7; format: cell-based; settings: 50 and 75 μgm/ml
Protocol: as §2, §3, §4

[7] = system: rhinovirus type 8 (prototype); assay: Inhibition of rhinovirus cytopathogenic effect in human embryonic lung cultures, type 8; format: cell-based; settings: 50 and 75 μgm/ml
Protocol: as §2, §3, §4

Influenza virus Swine A = format: in vivo, mice; settings: 500 mg/kg IP
[8] = system: rhinovirus type 55 (strain Wis 315E); assay: Gradient plate plaque-reduction technique in HeLa cells, rhinovirus type 55; format: cell-based, human; set-up: key to ACTIVITY: +: active
Protocol: as §1

[9] = system: rhinovirus type 6 (SF1349); assay: Inhibition of rhinovirus cytopathogenic effect in human embryonic lung cultures, type 6; format: cell-based; settings: 50 and 75 μgm/ml
Protocol: as §2, §3, §4

[10] = system: rhinovirus type 50 (strain A2 No.58); assay: Gradient plate plaque-reduction technique in HeLa cells, rhinovirus type 50; format: cell-based, human; set-up: key: +: active
Protocol: as §1

[11] = system: rhinovirus type 9 (prototype); assay: Inhibition of rhinovirus cytopathogenic effect in human embryonic lung cultures, type 9; format: cell-based; settings: 50 and 75 μgm/ml
Protocol: as §2, §3, §4

Herpes Simplex [12] = assay: microbe, parasite or virus in culture; format: cell-based, rabbit; settings: Oryctolagus cuniculus, 96 h; dose of 250 μg; virus pretreated with compound one hour; 50% considered significant; read-out: plaque-reduction
Influenza Swine A = assay: animal or person; format: in vivo, mice; settings: in Mus musculus, 48 h, read-out: Log Reductions (EID50) as compared with controls
[13] = system: Influenza virus Maryland B; assay: Mouse-Survival Test (Test No. 1), Influenza Maryland B; format: in vivo, mice; settings: for Survival Percent: virus dose 79 multiples of LD50; for S.I.: virus dose 79 multiples of LD50, significant if >1.24
[14] = system: rhinovirus type 44 (strain F01 3744); assay: Gradient plate plaque-reduction technique in HeLa cells, rhinovirus type 44; format: cell-based, human; set-up: key to ACTIVITY: +: active; -: inactive
Protocol: as §1

[15] = system: rhinovirus type 14 (prototype); assay: Inhibition of rhinovirus cytopathogenic effect in human embryonic lung cultures, type 14; format: cell-based; settings: 50 and 75 μgm/ml
Protocol: as §2, §3, §4

Influenza virus = format: in vivo, mice; settings: for S.I. / Survival Percent / MDD (Mean Day of Death): intranasal 10% suspension, 25 multiples of LD50; for MDD (Mean Day of Death): virus alone 6.20
Influenza viruses = assay: Mouse-Survival Test (Test No. 1), Influenza virus strain not given; format: in vivo, mice; settings: unidentified influenza virus, 360 h
Influenza Jap 305 = assay: 48-Hour Mouse Test (Test No. 2), Influenza Jap 305; format: in vivo, mice; settings: read-out: Log Reductions (EID50) as compared with controls
[16] = Enterovirus, read-out: MINIMUM INHIBITORY Concentration
[17] = Jap 305, 5 mg/kg IP, virus dose 20 multiples of LD50
[18] = Jap 305, 50 mg/kg IP, virus dose 32 multiples of LD50
[19] = Jap 305, 50 mg/kg PO, virus dose 3.2 multiples of LD50
[20] = Jap 305, 500 mg/kg IP, virus dose 32 multiples of LD50
[21] = Jap 305, 500 mg/kg PO, virus dose 3.2 multiples of LD50
[22] = ip, read-out: Survival Index (S.I.)

CCc1[nH]nc(-c2ccncc2)c1-c1ccccc1O [Compound A, 3-(4-pyridyl)-4-(2-hydroxyphenyl)-5-ethylpyrazole]
ACTIVITY [1]: -
MIC [1, 16]: 30 µg/mL (≈ 113 µM)
formation of geographic keratitic lesions as compared to infected control animals (Herpes): inhibited the formation of geographic keratitic lesions
inhibition at 250 µg (Herpes Simplex [2]): 100%
log reduction at 5 mg/kg (Influenza PR8; PR8, 5 mg/kg IP): 1.41
log reduction at 50 mg/kg (Influenza PR8; PR8, 50 mg/kg IP): 1.69
log reduction at 50 mg/kg (Influenza PR8; PR8, 50 mg/kg PO): 1.21
log reduction at 500 mg/kg (Influenza PR8; PR8, 500 mg/kg IP): 1.87
log reduction at 500 mg/kg (Influenza PR8; PR8, 500 mg/kg PO): 1.07
ACTIVITY [3]: + (active)
Survival Percent (Influenza virus Jap 305; [17]): 20%
S.I. (Influenza virus Jap 305; [17]): 1.34
Survival Percent (Influenza virus Jap 305; [18]): 10%
S.I. (Influenza virus Jap 305; [18]): 1.34
Survival Percent (Influenza virus Jap 305; [19]): 60%
S.I. (Influenza virus Jap 305; [19]): 1.43
Survival Percent (Influenza virus Jap 305; [20]): 60%
S.I. (Influenza virus Jap 305; [20]): 2.04
Survival Percent (Influenza virus Jap 305; [21]): 66%
S.I. (Influenza virus Jap 305; [21]): 1.43
ACTIVITY [4]: +
ACTIVITY [5]: +
MIC [5, 16]: 15 to 16 µg/mL (≈ 56.5 to 60.3 µM)
ACTIVITY [6]: + (active)
ACTIVITY [7]: + (active)
Survival Percent (Influenza virus Swine A; virus dose 14 multiples of LD50): 50%
S.I. (Influenza virus Swine A; virus dose 14 multiples of LD50, significant if >1.24): 1.52
ACTIVITY [8]: +
MIC [8, 16]: 20 µg/mL (≈ 75.4 µM)
ACTIVITY [9]: + (active)
ACTIVITY [10]: +
ACTIVITY [11]: + (active)
inhibition at 250 µg (Herpes Simplex [12]): 60%
log reduction at 50 mg/kg (Influenza Swine A; ip): 1
log reduction at 500 mg/kg (Influenza Swine A; ip): 1.8
log reduction at 5 mg/kg (Influenza Swine A; po): 1.1
log reduction at 50 mg/kg (Influenza Swine A; po): 1.4
Survival Percent ([13]; 500 mg/kg IP): 10%
S.I. ([13]; 500 mg/kg IP): 1.47
Survival Percent ([13]; 500 mg/kg PO): 12%
S.I. ([13]; 500 mg/kg PO): 1.52
ACTIVITY [14]: -
MIC [14, 16]: 30 µg/mL (≈ 113 µM)
ACTIVITY [15]: + (active)
S.I. (Influenza virus; 30 min. before infection): 1.90
Survival Percent (Influenza virus; 30 min. before infection): 40%
MDD (Mean Day of Death) (Influenza virus; 30 min. before infection): 11.80 days
S.I. (Influenza virus; 2 hr. before infection): 2.07
Survival Percent (Influenza virus; 2 hr. before infection): 70%
MDD (Mean Day of Death) (Influenza virus; 2 hr. before infection): 12.80 days
S.I. (Influenza virus; 4 hr. before infection): 1.88
Survival Percent (Influenza virus; 4 hr. before infection): 60%
MDD (Mean Day of Death) (Influenza virus; 4 hr. before infection): 11.70 days
S.I. (Influenza virus; 6 hr. before infection): 1.90
Survival Percent (Influenza virus; 6 hr. before infection): 50%
MDD (Mean Day of Death) (Influenza virus; 6 hr. before infection): 11.80 days
persistence of the effect: differences between times of administration (Influenza virus; mouse, in vivo): no significant differences
protective effect (Influenza virus; mouse, in vivo): definite protective effect at all times of administration
survival period of the treated animals that did die, relative to controls (Influenza virus; mouse, in vivo): approximately twice that of the controls
response vs control in vivo at 50 mg/kg (Influenza viruses; [22]): 137%
response vs control in vivo at 500 mg/kg (Influenza viruses; [22]): 171%
responders at 50 mg/kg (Influenza viruses; ip, read-out: Survival Percent): 0%
responders at 500 mg/kg (Influenza viruses; ip, read-out: Survival Percent): 37.5%
response vs control in vivo at 500 mg/kg (Influenza viruses; po, read-out: Survival Index (S.I.)): 171%
responders at 500 mg/kg (Influenza viruses; po, read-out: Survival Percent): 33.3%
log reduction at 50 mg/kg (Influenza Jap 305; ip): 1.53
log reduction at 5 mg/kg (Influenza Jap 305; po): 2
log reduction at 50 mg/kg (Influenza Jap 305; po): 2.7
log reduction at 500 mg/kg (Influenza Jap 305; po): 2.5

Source: patent US4000281A, “Pyrazole derivatives” (priority 1971, dated 1976)
